{"source": "patent US4745101A", "about": "“Novel peptide having dentinal fluid transport-stimulating activity” (Teikoku Hormone Mfg. Co., Ltd., priority 1985, dated 1988)", "assay": "Solubility", "assay_type": "physicochemical", "text": "Soluble in water and physiological saline. Insoluble in acetone.", "note": "Where no end group is shown, it is not given here.", "data": [{"sequence": "GVIAWELQHNQPGRKDSTAG [Peptide of the invention]", "values": [{"measurement": "Solubility", "setting": "in acetone", "result": "Insoluble"}, {"measurement": "Solubility", "setting": "in physiological saline", "result": "Soluble"}, {"measurement": "Solubility", "setting": "in water", "result": "Soluble"}]}]}
